# In US20080280862A1, “Methods, compositions, and kits for the treatment of pain” (priority 2007, published 2008):
# Key:
# [1] = system: formalin-induced pain model in rats; experiment: Formalin pain model, nociceptive behaviors; format: in vivo, Sprague-Dawley rats
# Experimental: The formalin model is a fast, reliable model used to assess potential analgesics ability to block inflammatory pain. The analgesic effects of test article combinations on pain generation are assayed using the formalin-induced pain model in rats. Adult male Sprague-Dawley rats are administered intraperitoneally study drugs (vehicle, TCA, steroid or TCA/Steroid test article combinations) once daily for 2 days (day −2 and day −1) and 30 minutes prior to the formalin injection day on day 0 (time=0). […] To elicit a pain response, dilute formalin (2% in saline) is injected under the skin of the plantar surface of the right hindpaw. The animal is placed in an observation chamber. The pain response is a characteristic biphasic response pattern of nociceptive behaviors (lifting, licking, and biting of the injected paw). Two distinct periods of nociceptive behaviors/activity are observed and recorded: an early phase (phase I) lasting the first 5-10 min and a late phase (phase II) lasting 20-40 min after the injection of formalin. One hour of data is collected (time spent displaying pain behavior) by a blinded observer using a stopwatch. Results are expressed as the number of pain behaviors per 5 minute periods (Table 8 and Table 9).
# [2] = system: acetic acid-induced pain model in mice; experiment: Acetic acid pain model, writhes; format: in vivo, ICR mice
# Experimental: The acetic acid is a reliable fast model for noxious/visceral pain usually used for screening potential drug candidates for their analgesic activity. The effects of test article combinations on pain generation are assayed using the acetic acid-induced pain model in mice. Adult male ICR mice are administered study drugs intraperitoneally (vehicle, TCA, steroid or TCA/Steroid test article combinations) once daily for 2 days (day −2 and day −1) and 30 minutes prior to the acetic acid injection on day 0 (time=0). […] To elicit a pain response, dilute acetic acid (10 ml/kg of 0.6% solution) is injected intraperitoneally into the abdomen. The animal is placed in an observation chamber, and 5 minutes after acetic acid administration, the number of writhes is counted and recorded over a five minute period by a blinded observer. A writhe is considered as a contraction of the abdominal muscles accompanied by an elongation of the body and extension of the hind limb. Results are expressed as number of writhes.
# [3] = Experiment Two, 1 mg/kg, 5 minutes
# [4] = Experiment Two, 1 mg/kg, 10 minutes
# [5] = Experiment Two, 1 mg/kg, 15 minutes
# [6] = Experiment Two, 1 mg/kg, 20 minutes
# [7] = Experiment Two, 1 mg/kg, 25 minutes
# [8] = Experiment Two, 1 mg/kg, 30 minutes
# [9] = Experiment Two, 1 mg/kg, 35 minutes
# [10] = Experiment Two, 1 mg/kg, 40 minutes
# [11] = Experiment Two, 1 mg/kg, 45 minutes
# [12] = Experiment Two, 1 mg/kg, 50 minutes
# [13] = Experiment Two, 1 mg/kg, 55 minutes
# [14] = Experiment Two, 1 mg/kg, 60 minutes
# [15] = Experiment Two, 3 mg/kg, 5 minutes
# [16] = Experiment Two, 3 mg/kg, 10 minutes
# [17] = Experiment Two, 3 mg/kg, 15 minutes
# [18] = Experiment Two, 3 mg/kg, 20 minutes
# [19] = Experiment Two, 3 mg/kg, 25 minutes
# [20] = Experiment Two, 3 mg/kg, 30 minutes
# [21] = Experiment Two, 3 mg/kg, 35 minutes
# [22] = Experiment Two, 3 mg/kg, 40 minutes
# [23] = Experiment Two, 3 mg/kg, 45 minutes
# [24] = Experiment Two, 3 mg/kg, 50 minutes
# [25] = Experiment Two, 3 mg/kg, 55 minutes
# [26] = Experiment Two, 3 mg/kg, 60 minutes
compound,measurement,setting,value
CNCCC=C1c2ccccc2CCc2ccccc21 [Nortriptyline],Mean number of behaviors per 5 minute block,"[1]; Experiment One, nortriptyline, 1 mg/kg, 5 minutes",185.0 ± 30.0
same,Mean number of behaviors per 5 minute block,"[1]; Experiment One, nortriptyline, 1 mg/kg, 10 minutes",26.0 ± 16.0
same,Mean number of behaviors per 5 minute block,"[1]; Experiment One, nortriptyline, 1 mg/kg, 15 minutes",16.0 ± 16.0
same,Mean number of behaviors per 5 minute block,"[1]; Experiment One, nortriptyline, 1 mg/kg, 20 minutes",33.0 ± 22.0
same,Mean number of behaviors per 5 minute block,"[1]; Experiment One, nortriptyline, 1 mg/kg, 25 minutes",124.0 ± 40.0
same,Mean number of behaviors per 5 minute block,"[1]; Experiment One, nortriptyline, 1 mg/kg, 30 minutes",170.0 ± 46.0
same,Mean number of behaviors per 5 minute block,"[1]; Experiment One, nortriptyline, 1 mg/kg, 35 minutes",181.0 ± 47.0
same,Mean number of behaviors per 5 minute block,"[1]; Experiment One, nortriptyline, 1 mg/kg, 40 minutes",168.0 ± 46.0
same,Mean number of behaviors per 5 minute block,"[1]; Experiment One, nortriptyline, 1 mg/kg, 45 minutes",176.0 ± 45.0
same,Mean number of behaviors per 5 minute block,"[1]; Experiment One, nortriptyline, 1 mg/kg, 50 minutes",191.0 ± 42.0
same,Mean number of behaviors per 5 minute block,"[1]; Experiment One, nortriptyline, 1 mg/kg, 55 minutes",165.0 ± 41.0
same,Mean number of behaviors per 5 minute block,"[1]; Experiment One, nortriptyline, 1 mg/kg, 60 minutes",89.0 ± 34.0
same,Mean number of behaviors per 5 minute block,"[1]; Experiment One, nortriptyline, 3 mg/kg, 5 minutes",248.0 ± 10.6
same,Mean number of behaviors per 5 minute block,"[1]; Experiment One, nortriptyline, 3 mg/kg, 10 minutes",36.0 ± 12.0
same,Mean number of behaviors per 5 minute block,"[1]; Experiment One, nortriptyline, 3 mg/kg, 15 minutes",87.0 ± 32.8
same,Mean number of behaviors per 5 minute block,"[1]; Experiment One, nortriptyline, 3 mg/kg, 20 minutes",159.0 ± 39.7
same,Mean number of behaviors per 5 minute block,"[1]; Experiment One, nortriptyline, 3 mg/kg, 25 minutes",182.0 ± 36.3
same,Mean number of behaviors per 5 minute block,"[1]; Experiment One, nortriptyline, 3 mg/kg, 30 minutes",231.0 ± 32.4
same,Mean number of behaviors per 5 minute block,"[1]; Experiment One, nortriptyline, 3 mg/kg, 35 minutes",253.0 ± 30.7
same,Mean number of behaviors per 5 minute block,"[1]; Experiment One, nortriptyline, 3 mg/kg, 40 minutes",253.0 ± 30.8
same,Mean number of behaviors per 5 minute block,"[1]; Experiment One, nortriptyline, 3 mg/kg, 45 minutes",258.0 ± 28.3
same,Mean number of behaviors per 5 minute block,"[1]; Experiment One, nortriptyline, 3 mg/kg, 50 minutes",212.0 ± 28.3
same,Mean number of behaviors per 5 minute block,"[1]; Experiment One, nortriptyline, 3 mg/kg, 55 minutes",136.0 ± 40.3
same,Mean number of behaviors per 5 minute block,"[1]; Experiment One, nortriptyline, 3 mg/kg, 60 minutes",94.0 ± 41.7
same,Mean number of behaviors per 5 minute block,"[1]; Experiment One, nortriptyline, 10 mg/kg, 5 minutes",227.0 ± 19.3
same,Mean number of behaviors per 5 minute block,"[1]; Experiment One, nortriptyline, 10 mg/kg, 10 minutes",30.0 ± 18.2
same,Mean number of behaviors per 5 minute block,"[1]; Experiment One, nortriptyline, 10 mg/kg, 15 minutes",11.0 ± 6.1
same,Mean number of behaviors per 5 minute block,"[1]; Experiment One, nortriptyline, 10 mg/kg, 20 minutes",39.0 ± 29.4
same,Mean number of behaviors per 5 minute block,"[1]; Experiment One, nortriptyline, 10 mg/kg, 25 minutes",62.0 ± 38.5
same,Mean number of behaviors per 5 minute block,"[1]; Experiment One, nortriptyline, 10 mg/kg, 30 minutes",60.0 ± 34.4
same,Mean number of behaviors per 5 minute block,"[1]; Experiment One, nortriptyline, 10 mg/kg, 35 minutes",99.0 ± 43.0
same,Mean number of behaviors per 5 minute block,"[1]; Experiment One, nortriptyline, 10 mg/kg, 40 minutes",109.0 ± 44.0
same,Mean number of behaviors per 5 minute block,"[1]; Experiment One, nortriptyline, 10 mg/kg, 45 minutes",122.0 ± 43.2
same,Mean number of behaviors per 5 minute block,"[1]; Experiment One, nortriptyline, 10 mg/kg, 50 minutes",96.0 ± 39.1
same,Mean number of behaviors per 5 minute block,"[1]; Experiment One, nortriptyline, 10 mg/kg, 55 minutes",140.0 ± 42.6
same,Mean number of behaviors per 5 minute block,"[1]; Experiment One, nortriptyline, 10 mg/kg, 60 minutes",180.0 ± 40.3
same,Mean number of behaviors per 5 minute block,"[1]; Experiment One, nortriptyline, 20 mg/kg, 5 minutes",158.0 ± 31.6
same,Mean number of behaviors per 5 minute block,"[1]; Experiment One, nortriptyline, 20 mg/kg, 10 minutes",21.0 ± 12.8
same,Mean number of behaviors per 5 minute block,"[1]; Experiment One, nortriptyline, 20 mg/kg, 15 minutes",0.0 ± 0.0
same,Mean number of behaviors per 5 minute block,"[1]; Experiment One, nortriptyline, 20 mg/kg, 20 minutes",9.0 ± 8.8
same,Mean number of behaviors per 5 minute block,"[1]; Experiment One, nortriptyline, 20 mg/kg, 25 minutes",30.0 ± 30.0
same,Mean number of behaviors per 5 minute block,"[1]; Experiment One, nortriptyline, 20 mg/kg, 30 minutes",36.0 ± 29.9
same,Mean number of behaviors per 5 minute block,"[1]; Experiment One, nortriptyline, 20 mg/kg, 35 minutes",33.0 ± 29.2
same,Mean number of behaviors per 5 minute block,"[1]; Experiment One, nortriptyline, 20 mg/kg, 40 minutes",29.0 ± 29.3
same,Mean number of behaviors per 5 minute block,"[1]; Experiment One, nortriptyline, 20 mg/kg, 45 minutes",33.0 ± 26.9
same,Mean number of behaviors per 5 minute block,"[1]; Experiment One, nortriptyline, 20 mg/kg, 50 minutes",46.0 ± 28.2
same,Mean number of behaviors per 5 minute block,"[1]; Experiment One, nortriptyline, 20 mg/kg, 55 minutes",47.0 ± 29.4
same,Mean number of behaviors per 5 minute block,"[1]; Experiment One, nortriptyline, 20 mg/kg, 60 minutes",68.0 ± 37.6
same,Mean number of behaviors per 5 minute block,[1]; [3],232.0 ± 16.5
same,Mean number of behaviors per 5 minute block,[1]; [4],13.0 ± 4.9
same,Mean number of behaviors per 5 minute block,[1]; [5],27.0 ± 16.8
same,Mean number of behaviors per 5 minute block,[1]; [6],113.0 ± 44.2
same,Mean number of behaviors per 5 minute block,[1]; [7],165.0 ± 45.1
same,Mean number of behaviors per 5 minute block,[1]; [8],234.0 ± 26.3
same,Mean number of behaviors per 5 minute block,[1]; [9],270.0 ± 10.6
same,Mean number of behaviors per 5 minute block,[1]; [10],281.0 ± 10.4
same,Mean number of behaviors per 5 minute block,[1]; [11],287.0 ± 5.5
same,Mean number of behaviors per 5 minute block,[1]; [12],266.0 ± 16.6
same,Mean number of behaviors per 5 minute block,[1]; [13],192.0 ± 38.3
same,Mean number of behaviors per 5 minute block,[1]; [14],170.0 ± 46.6
same,Mean number of behaviors per 5 minute block,[1]; [15],228.0 ± 25.1
same,Mean number of behaviors per 5 minute block,[1]; [16],28.0 ± 12.3
same,Mean number of behaviors per 5 minute block,[1]; [17],10.0 ± 6.2
same,Mean number of behaviors per 5 minute block,[1]; [18],96.0 ± 43.8
same,Mean number of behaviors per 5 minute block,[1]; [19],162.0 ± 44.0
same,Mean number of behaviors per 5 minute block,[1]; [20],200.0 ± 45.0
same,Mean number of behaviors per 5 minute block,[1]; [21],217.0 ± 47.8
same,Mean number of behaviors per 5 minute block,[1]; [22],216.0 ± 47.3
same,Mean number of behaviors per 5 minute block,[1]; [23],220.0 ± 48.1
same,Mean number of behaviors per 5 minute block,[1]; [24],224.0 ± 42.0
same,Mean number of behaviors per 5 minute block,[1]; [25],247.0 ± 36.2
same,Mean number of behaviors per 5 minute block,[1]; [26],188.0 ± 36.8
same,Mean # of writhes per 5 minutes ± SEM,[2]; 1 mg/kg ip,11.78 ± 3.44
same,Mean # of writhes per 5 minutes ± SEM,[2]; 5 mg/kg ip,7.79 ± 3.81
same,Mean # of writhes per 5 minutes ± SEM,[2]; 10 mg/kg ip,7.57 ± 2.53
same,Mean # of writhes per 5 minutes ± SEM,[2]; 15 mg/kg ip,2.07 ± 1.42
C[C@]12C=CC(=O)C=C1CC[C@@H]1[C@@H]2[C@@H](O)C[C@@]2(C)[C@H]1CC[C@]2(O)C(=O)CO [Prednisolone],Mean number of behaviors per 5 minute block,[1]; [3],224.0 ± 34.1
same,Mean number of behaviors per 5 minute block,[1]; [4],27.0 ± 11.7
same,Mean number of behaviors per 5 minute block,[1]; [5],18.0 ± 15.2
same,Mean number of behaviors per 5 minute block,[1]; [6],115.0 ± 41.9
same,Mean number of behaviors per 5 minute block,[1]; [7],172.0 ± 51.1
same,Mean number of behaviors per 5 minute block,[1]; [8],178.0 ± 52.0
same,Mean number of behaviors per 5 minute block,[1]; [9],174.0 ± 48.7
same,Mean number of behaviors per 5 minute block,[1]; [10],207.0 ± 43.9
same,Mean number of behaviors per 5 minute block,[1]; [11],197.0 ± 45.3
same,Mean number of behaviors per 5 minute block,[1]; [12],192.0 ± 48.4
same,Mean number of behaviors per 5 minute block,[1]; [13],113.0 ± 43.2
same,Mean number of behaviors per 5 minute block,[1]; [14],92.0 ± 29.7
same,Mean number of behaviors per 5 minute block,[1]; [15],218.0 ± 14.7
same,Mean number of behaviors per 5 minute block,[1]; [16],15.0 ± 6.7
same,Mean number of behaviors per 5 minute block,[1]; [17],6.0 ± 3.4
same,Mean number of behaviors per 5 minute block,[1]; [18],68.0 ± 19.8
same,Mean number of behaviors per 5 minute block,[1]; [19],208.0 ± 35.5
same,Mean number of behaviors per 5 minute block,[1]; [20],214.0 ± 39.8
same,Mean number of behaviors per 5 minute block,[1]; [21],254.0 ± 29.2
same,Mean number of behaviors per 5 minute block,[1]; [22],269.0 ± 14.2
same,Mean number of behaviors per 5 minute block,[1]; [23],258.0 ± 19.9
same,Mean number of behaviors per 5 minute block,[1]; [24],221.0 ± 36.1
same,Mean number of behaviors per 5 minute block,[1]; [25],198.0 ± 38.1
same,Mean number of behaviors per 5 minute block,[1]; [26],133.0 ± 46.8
same,Mean # of writhes per 5 minutes ± SEM,[2]; 1 mg/kg ip,8.00 ± 1.70
same,Mean # of writhes per 5 minutes ± SEM,[2]; 5 mg/kg ip,14.43 ± 2.07
same,Mean # of writhes per 5 minutes ± SEM,[2]; 10 mg/kg ip,12.29 ± 3.83
same,Mean # of writhes per 5 minutes ± SEM,[2]; 35 mg/kg ip,11.29 ± 5.22
